According to US20080031912A1, “METHOD FOR CONTROLLING CELL MIGRATION ON A SURFACE” (THE REGENTS OF THE UNIVERSITY OF CALIFORNIA, priority 2006, published 2008):

What was measured:
[1] = tested on: NIH 3T3 cells; experiment: Cell migration onto coated half of tissue culture dish; assay type: cell-based; conditions: right half of dish coated with 1 μg/cm^2 of each protein; cells seeded on uncoated half, 7 days
Experimental: (§1) Cell Culture. NIH 3T3 cells were cultured in DMEM supplemented with 10% calf serum, 1% sodium pyruvate, 1% L-glutamine, 1% penicillin/streptomycin, and maintained in a humidified 5% CO2/95% air incubator at 37° C. Wildtype and pik3R2^−/− MEF cell lines were maintained in DMEM supplemented with 15% FBS and 1% penicillin/streptomycin, and maintained in a humidified 5% CO2, 95% air incubator at 37° C.
(§2) Imaging. NIH 3T3 cells were maintained in complete media (described above) for all experiments. Imaging was done on a Nikon Diaphot 300 inverted microscope with a Hamamatsu Orca ER digital camera controlled by IP lab software (Scanalytics). Images were captured under 10× and 20× phase-contrast microscopy. The cells were under temperature and gas control throughout the duration of the experiments (5% CO2, 95% air, 37° C.). MEF cells were maintained in complete media for all experiments. Imaging was done on a Nikon Diaphot 300 inverted microscope with a Hamamatsu Orca ER digital camera controlled by IP lab, or Metamorph imaging software. Images were captured under 20× and 40× differential interference microscopy (DIC), or fluorescence microscopy. The cells were under temperature and gas control throughout the duration of live cell imaging experiments (5% CO2, 95% air, 37° C.). […]

[2] = tested on: NIH 3T3 cells; experiment: Cell spreading on coated tissue culture dishes (time-lapse microscopy); assay type: cell-based; conditions: surface coated with 1 μg/cm2; observed over 8 hours (3, 6, 8 hours post-plating)
Experimental: as §1, §2

Substance: fibronectin [FN]
- cell migration onto coated surface [1]: robust migration
- cell spreading on coated surface [2]: spread efficiently
